According to US20120277211A1, “METHODS AND COMPOSITIONS FOR THE TREATMENT OF PSYCHOTIC DISORDERS THROUGH THE IDENTIFICATION OF THE SULT4A1-1 HAPLOTYPE” (priority 2009, published 2012):
Where two headings read alike, the source gives them in different places. Marks after values point to notes of the source that are not given here.

Experiments:
[1] = tested on: Caucasian schizophrenia patients; assay: CATIE: hospitalization due to exacerbation of psychosis by SULT4A1-1 status; format: in vivo, human
Description: To assess if SULT4A1-1 status impacts the risk of hospitalization in Caucasians, the inventors assigned SULT4A1-1 status to each CATIE subject and evaluated hospitalization events due to exacerbation of psychosis. For this analysis, the inventors assigned a dichotomous value (positive or negative) for hospitalization status to subjects in each phase of the trial based on only the first hospitalization event for a given patient in that phase. Patients participating in Phases 1, 2, and/or 3 were included in the totals for the appropriate drug.
A Kaplan-Meier survival analysis was performed to determine whether there was a difference between the survival (hospitalization) rates for the SULT4A1-1 negative and SULT4A1-1 positive patient populations treated with each of the atypical antipsychotics. Survival plots model the fraction of the population that survived (i.e., no hospitalization event) as a function of time.

schizophrenia patients [2] = assay: CATIE: months of successful treatment measured by the CGI scale (TMSUCC1); format: in vivo, human
Description: The CATIE clinical data set included Clinical Global Impression (CGI) Scale, an observer-provided assessment of the psychiatric health of the patient (Stroup et al., 2003; Guy 1976). Patients are rated with the CGI Scale from 1 to 7, with higher scores indicating greater severity of illness. The CATIE study provided a response variable that measured the time (in months) of successful treatment as measured by the CGI scale (“TMSUCC1” in the CATIE data).

[3] = tested on: African American schizophrenia patients; assay: CATIE: change in total PANSS (LOCF) by SULT4A1-1 haplotype status, African Americans; format: in vivo, human; details: for Number of individuals with change in total PANSS ≦−20% (responders) / Number of individuals with change in total PANSS ≧−20% (non-responders): LOCF
Protocol: The design of the CATIE study has been described in detail by others (Lieberman et al., 2005; Stroup et al., 2003). […] A total of 738 subjects consented to provide DNA for genetic study. […] Retrospective genetic analyses, judged to be exempt from human studies requirements by an IRB, were conducted in the current study. All tested patients were studied using well established clinical endpoints comparing baseline, intermediate, and last observation carried forward (LOCF) for the PANSS scores using CATIE data. […] To remove time on drug as a variable for the CATIE trial, analysis was limited to only those patients who were randomized to a different drug following the initial washout period (drug switchers).

[4] = tested on: Caucasian schizophrenia patients; assay: CATIE: time to discontinuation for all causes by SULT4A1-1 status; format: in vivo, human
Description: The primary endpoint for the CATIE study was time to discontinuation for all causes (Lieberman et al., 2005). Thus the inventors evaluated the effect of SULT41-1 status on this important parameter.

schizophrenia patients [5] = details: Phase II; for Responders: decrease PANSS ≧20%, LOCF
[6] = tested on: unsegmented patient populations; details: cited from earlier work
[7] = tested on: Caucasian schizophrenia patients; assay: CATIE Phase I: change in total PANSS (LOCF) by SULT4A1-1 haplotype status, Caucasians; format: in vivo, human; details: for Percent change from baseline PANSS scores, mean (standard deviation): Phase I; for Percent change from baseline PANSS scores, mean (standard deviation) / Number of individuals with change in total PANSS ≦−20% (responders) / Number of individuals with change in total PANSS ≧−20% (non-responders) / Responders: LOCF; for Number of individuals with change in total PANSS ≦−20% (responders) / Number of individuals with change in total PANSS ≧−20% (non-responders) / Responders: CATIE Caucasians; for Responders: change in PANSS ≦−20%
Description: There are several different metrics for quantifying response in clinical trials of antipsychotic medications. The most commonly used psychometric instrument is the Positive and Negative Syndrome Scale (PANSS), a 30-item semi-quantitative instrument scored by clinical professionals (Kay et al., 1987). The greater the decrease in PANSS score, the better the clinical response. The most direct measure of clinical response is absolute change in PANSS score. In addition to absolute change, the improvement is often reported as a percentage change from baseline PANSS score.
A decrease of at least 20% in total PANSS is one commonly used threshold for response (Leucht et al., 2009).
The design of the CATIE study has been described in detail by others (Lieberman et al., 2005; Stroup et al., 2003). […] A total of 738 subjects consented to provide DNA for genetic study. […] Retrospective genetic analyses, judged to be exempt from human studies requirements by an IRB, were conducted in the current study.
All tested patients were studied using well established clinical endpoints comparing baseline, intermediate, and last observation carried forward (LOCF) for the PANSS scores using CATIE data. LOCF analysis is a commonly used clinical endpoint for clinical trials for neuropsychiatric drugs, with changes in PANSS scores of between negative 20% and negative 30% used as typical endpoints to indicate clinically significant response (Leucht et al., 2009). To remove time on drug as a variable for the CATIE trial, analysis was limited to only those patients who were randomized to a different drug following the initial washout period (drug switchers).
The CATIE clinical data set included baseline PANSS scores based on clinical assessments prior to initiation of the assigned therapy, but following the washout period for any patients previously on antipsychotic medication. Follow up PANSS data for the CATIE trial were collected at each visit as described in detail by others (Stroup et al., 2003).
Since follow-up on subjects was not done at uniform time intervals, analysis was done using the last observation for each patient in treatment Phase I of the trial as the measure of response (last observation carried forward, LOCF). Main effect and interaction terms between the SULT4A1-1 haplotype and drug therapy were included in the linear model. A pre-determined set of contrasts for differences in percent change PANSS by haplotype within each drug therapy (three comparisons) and by drug therapy within each haplotype (six comparisons) were evaluated, with adjustment for multiple-comparisons using the step-up false-discovery rate (FDR) controlling procedure (Benjamini and Hochberg, 1995). A sub-analysis omitting those patients who were randomized to the same antipsychotic drug therapy was also conducted.

[8] = comparator = labelled drug in SULT4A1-1+ patients
[9] = complete sample, SULT4A1-1+, labelled drug vs Risperidone
[10] = complete sample, within drug, SULT4A1-1+ vs SULT4A1-1−
[11] = randomized to a different medication, SULT4A1-1+, labelled drug vs Risperidone
[12] = randomized to a different medication, within drug, SULT4A1-1+ vs SULT4A1-1−

## OCCOCCN1CCN(C2=Nc3ccccc3Sc3ccccc32)CC1 [Quetiapine]
[1]; SULT4A1-1 negative
  HOSP, number of patients hospitalized: 24
  HOSP, rate of hospitalization: 19.5%
[1]; SULT4A1-1 positive
  HOSP, number of patients hospitalized: 1
  HOSP, rate of hospitalization: 2.9%
[1]; Unsegmented
  HOSP, rate of hospitalization: 15.9%
[1]; Unsegmented, Phases 1, 2 and/or 3, first event
  HOSP, number of patients hospitalized: 25
[1]; per drug
  Kaplan-Meier: difference between survival (no hospitalization) rates of SULT4A1-1 negative and positive patients: significant difference
Schizophrenia patients [2]; SULT4A1-1 negative
  Length of successful treatment (CGI Months), Mean: 4.22 Months
Schizophrenia patients [2]; SULT4A1-1 positive
  Length of successful treatment (CGI Months), Mean: 5.96^c Months
Schizophrenia patients [2]; Unsegmented
  Length of successful treatment (CGI Months), Mean: 4.65 Months
[3]; SULT4A1-1 negative
  Responders: 26.5%
  Number of individuals with change in total PANSS ≦−20% (responders): 9
  Number of individuals with change in total PANSS ≧−20% (non-responders): 25
[3]; SULT4A1-1 positive
  Responders: 33.3%
  Number of individuals with change in total PANSS ≦−20% (responders): 2
  Number of individuals with change in total PANSS ≧−20% (non-responders): 4
[4]; SULT4A1-1 negative
  Time to discontinuation, mean: 8.6*** Months
[4]; SULT4A1-1 positive
  Time to discontinuation, mean: 10.3 Months
Schizophrenia patients [5]; SULT4A1-1 Negative
  % Responders: 9.0%
  Nonresponders: 10
  Responders: 1
Schizophrenia patients [5]; SULT4A1-1 Positive
  % Responders: 0%
  Nonresponders: 1
  Responders: 0
[6]; first generation antipsychotics, Davis et al. (2003)
  Effect Size vs. FGA: 0.01
[6]; meta-analysis, Leucht et al. (2009), negative = greater reduction in PANSS
  Effect Size vs. Placebo: −0.42
[6]; unsegmented populations, Leucht et al. (2009)
  Mean difference in total PANSS score between olanzapine and labelled drug, Meta-analysis: −3.7
[7]; SULT4A1-1+
  Mean difference in total PANSS score between olanzapine and labelled drug, CATIE SULT4A1-1+: −12.9
[7]; SULT4A1-1+, complete sample
  Percent change from baseline PANSS scores, mean (standard deviation): −4.52 (17.6) %
[7]; SULT4A1-1+, patients randomized to a different medication
  Percent change from baseline PANSS scores, mean (standard deviation): −6.44 (19.0) %
[7]; SULT4A1-1 negative
  DELTA PANSS % (mean change in PANSS score from baseline to LOCF): 0*** %
  Number of individuals with change in total PANSS ≦−20% (responders): 13
  Number of individuals with change in total PANSS ≧−20% (non-responders): 50
  Responders: 20.6%**
[7]; SULT4A1-1 positive
  DELTA PANSS % (mean change in PANSS score from baseline to LOCF): −9** %
  Number of individuals with change in total PANSS ≧−20% (non-responders): 11
  Responders: 38.8%
[7]; SULT4A1-1 positive, randomized to a different drug
  Number of individuals with change in total PANSS ≦−20% (responders): 7
[7]; SULT4A1-1−
  Mean difference in total PANSS score between olanzapine and labelled drug, CATIE SULT4A1-1−: −3.8
[7]; SULT4A1-1−, complete sample
  Percent change from baseline PANSS scores, mean (standard deviation): 0.84 (26.5) %
[7]; SULT4A1-1−, patients randomized to a different medication
  Percent change from baseline PANSS scores, mean (standard deviation): 0.4 (26.7) %
[7]; Unsegmented
  Mean difference in total PANSS score between olanzapine and labelled drug, CATIE unsegmented: −6.2
[7]; [8]
  Effect size: olanzapine SULT4A1-1+ vs comparator group: 0.75
  Mean difference (95% CI) in delta PANSS: olanzapine SULT4A1-1+ minus comparator group: −14.9 (−28.3 to −1.5)
[7]; [9]
  Difference in percent change in PANSS score (first group minus second): −1.0%
  Difference in percent change in PANSS score, corrected for age, age of onset and sex: −0.54%
[7]; [10]
  Difference in percent change in PANSS score (first group minus second): −5.4%
  Difference in percent change in PANSS score, corrected for age, age of onset and sex: −2.65%
[7]; olanzapine-treated SULT4A1-1 positive versus labelled drug-treated SULT4A1-1 positive
  Effect Size attributable to SULT4A1-1 status in CATIE: −0.75^b
[7]; [11]
  Difference in percent change in PANSS score (first group minus second): −4.6%
  Difference in percent change in PANSS score, corrected for age, age of onset and sex: −3.33%
[7]; [12]
  Difference in percent change in PANSS score (first group minus second): −6.8%
  Difference in percent change in PANSS score, corrected for age, age of onset and sex: −2.91%
